According to US20080188761A1, “ECG-BASED IDENTIFICATION OF IMPAIRED IKR KINETICS” (priority 2006, published 2008):
Like-named read-outs stand apart in the source and are kept apart here.

Test system: healthy individuals
Conditions: for RR: healthy subjects, lead II, mean ± SD
Description: Our investigation is based on the analysis of 12-lead digital Holter recordings in: 49 LQT1 carriers, 25 LQT2 carriers, 37 healthy individuals off drugs and on 160 mg of sotalol, and 21 of them also on 320 mg of sotalol. The Holter recordings were used to investigate repolarization parameters and their heart rate dependency.
The study populations consisted of: 49 LQT1 carriers, 25 LQT2 carriers, and 37 healthy individuals who participated in a study focused on effect of sotalol on ECG parameters of repolarization. The group of LQTS patients included individuals with genetically identified KCNH2 (HERG) and KCNQ1 mutations, we investigated these two types of mutations since they are associated with two different ion-kinetics dysfunctions of potassium currents: the KCNH2 have been linked to a reduction of the rapidly activating repolarizing potassium current (IKr) and the KCNQ1 to the slowly activating ion current IKs. We analyzed the patients in whom digital 24-hour Holter recordings were available in order to be able to investigate heart rate dependency of their repolarization morphology. The protocol of this study included 3 days of Holter recordings: at baseline, on single 160 mg dose of sotalol and a 320 mg dose of sotalol.
All the Holter ECGs were recorded using the same type of equipment: 24-hour Holter recorder H12 (H-12 recorder, Mortara Instrument, Milwaukee, Wis.) providing digital ECG signal at a sampling frequency of 180 Hz and with 12 bit amplitude resolution (6.25 pv). In this recording, 8 original leads are recorded and the remaining 4 leads (augmented limb leads aVR, aVL, aVF and lead III) are computed. Beat classification was performed using the HScribe scanning software (HScribe, Mortara Instrument, Milwaukee, Wi.) and manually reviewed and adjusted when necessary. The information about cardiac beat annotation was exported in XML format and integrated into the COMPAS software (COMPhrensive Analysis of the repolarization Segment software, University of Rochester Medical Center Rochester, N.Y.) for the analysis of repolarization morphology.
To ensure stability of repolarization and increase signal-to-noise ratio, we adopted the following strategy: the Holter recordings were divided in sections of 10 continuous sinus beats. Only the sections preceded by stable heart rate within the previous 5 minutes were selected for the analysis. Heart rate stability required having less than 300 ms changes between continuous RR values within the 5 minutes. […] The QT interval and T-amplitude measurements were based on median beats computed from each so-called “stable representative beats”.
Based on a technique ensuring an appropriate stability of the modeling of the relationship between repolarization measurements and the RR intervals disclosed in a publication by Couderc J P, Xiaojuan X, Zerba W, Moss A J, entitled, “Assessment of the Stability of the Individual-Based Correction of QT Interval for Heart Rate”, published in the Ann. Noninvasive. Electrocardiol. 2005 January; 10(1):25-34, and herein officially incorporated by reference, we investigated two electrocardiographic measurements: the QT interval and the amplitude of the T-wave and their relationship with RR intervals.
The QT interval and T amplitude were measured on the stable representative beats from lead II. The end of T-wave was identified based on the tangent method, the crossing point between the tangent and the isoelectric line identifying the end of the T-wave, although other methods of measuring the QT interval could be used in other embodiments. The amplitude of the T-wave was measured at the maximum value of the T-wave signal in absolute value. For negative T-waves, the sign of the amplitude was conserved. For biphasic T-waves, we measured the highest portion of the signal in absolute value. No manual adjustments of measurements were performed.

With CC(C)NCC(O)c1ccc(NS(C)(=O)=O)cc1 (stereo not drawn) [sotalol] the RR (high dose sotalol (320 mg), n = 21, diurnal period) was 947 ± 70 ms, the RR (low dose sotalol (160 mg), n = 37, diurnal period) was 893 ± 63 ms and the “Dose dependence of QT/RR slope” value (in vivo) was “not associated with sotalol dose-dependent changes”. For the same compound, the “Dose dependence of T-wave amplitude/RR slope” value (in vivo) was “dose-dependent effect on the slope”, the “Dose-dependent effect on QT interval duration, RR bin analysis” value (in vivo) was “this trend did not reach statistical significance” and the “Mean levels of T wave amplitude off vs on sotalol” value (in vivo) was “not significantly different”. The “QT interval duration, RR bin analysis, vs healthy individuals” value (in vivo) was “significant QT interval prolongation”, the “QTc with increasing dose of sotalol” value (in vivo) was “progressively prolonged” and the “T-wave amplitude across RR bins” value (in vivo) was “clear dose-dependent effect of the drug on T-wave amplitude exacerbated at low heart rate”.
